Test results as given in publication PMC6268379, “Antifungal Activity of Homoaconitate and Homoisocitrate Analogs” (Molecules, 2012).
In brackets after ≈: the same amount, converted by molar mass. Like-named read-outs stand apart in the source and are kept apart here.

Tests used:
[1] = test system: Candida glabrata DSM 11226; experiment: Antifungal in vitro activity, microplate serial dilution (modified CLSI M27-A3); type: cell-based; details: Nakaseomyces glabratus
[2] = test system: Saccharomyces cerevisiae ATCC 9763; experiment: as above; type: cell-based
[3] = test system: Candida lusitaniae DSM 70102; experiment: as above; type: cell-based; details: Clavispora lusitaniae
[4] = test system: Candida albicans ATCC 10231; experiment: as above; type: cell-based
[5] = biological target: T1, recombinant homoaconitase (HA) (Candida albicans, UniProt Q5A644); experiment: Homoaconitase activity, coupled reaction with HIcDH, NADH at 340 nm; type: biochemical; details: for effect on enzyme activity (homoaconitase): ester derivatives, concentrations up to 10 mM
T1 construct: made in house
T1 sequence (Q5A644 1-684): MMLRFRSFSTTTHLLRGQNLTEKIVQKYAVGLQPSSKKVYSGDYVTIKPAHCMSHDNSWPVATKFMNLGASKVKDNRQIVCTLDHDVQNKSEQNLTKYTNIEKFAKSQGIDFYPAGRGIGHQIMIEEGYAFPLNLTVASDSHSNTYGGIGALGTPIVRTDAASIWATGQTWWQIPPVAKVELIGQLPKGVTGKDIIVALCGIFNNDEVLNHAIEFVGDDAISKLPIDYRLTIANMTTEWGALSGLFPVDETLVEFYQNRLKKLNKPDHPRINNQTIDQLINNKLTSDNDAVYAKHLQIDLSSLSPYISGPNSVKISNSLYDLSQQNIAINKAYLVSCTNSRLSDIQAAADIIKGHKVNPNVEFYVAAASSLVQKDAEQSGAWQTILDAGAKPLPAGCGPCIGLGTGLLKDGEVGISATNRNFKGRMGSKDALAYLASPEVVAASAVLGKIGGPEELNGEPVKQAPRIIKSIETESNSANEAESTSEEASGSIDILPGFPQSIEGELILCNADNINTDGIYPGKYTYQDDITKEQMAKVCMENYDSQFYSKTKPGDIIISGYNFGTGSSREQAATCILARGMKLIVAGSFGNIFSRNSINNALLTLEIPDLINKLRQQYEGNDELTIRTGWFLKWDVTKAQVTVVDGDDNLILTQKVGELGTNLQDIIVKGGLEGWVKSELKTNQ
Experimental: (§1) Recombinant C. albicans homoaconitase (HA) and homoisocitrate dehydrogenase (HIcDH) containing oligoHis N-terminal tags were constructed and purified to near homogeneity as described earlier.
Activity of homoaconitase (HA) was measured by a coupled reaction with HIcDH by monitoring the reduction of NAD^+ to NADH at 340 nm. Reaction mixtures containing 50 mM Tris-HCl (pH 8.5), 50 mM KCl, 5 mM MgCl2, 20 mM dithiothreitol, 1 mM NAD^+ and 30 μg/mL of His6-HIcDH in a total volume of 0.9 mL were degassed under argon for 10 min, after which 0.05 mL of His6-HAC solution was added to a final concentration of 10 μg/mL. The reaction was initiated with addition of 0.05 mL of 50 mM (R)-homocitrate. The formation of NADH was measured for 30 s at 20 °C to determine initial reaction velocity. The initial rates were determined using a linear portion of the reaction progress curve.
(§2) The effects of novel compounds on the HA and HIcDH activity was determined by measuring the enzyme activity in standard assay mixtures containing various concentration of an inhibitor (0–10 mM). Inhibitory potential was expressed as IC50 values, i.e., concentrations causing 50% inhibition of enzyme activity in relation to control. All determinations were performed in triplicate.

[6] = test system: Candida tropicalis KKP 334; experiment: Antifungal in vitro activity, microplate serial dilution (modified CLSI M27-A3); type: cell-based
six yeast strains = experiment: In vitro antifungal activity against six yeast strains; type: cell-based; details: for MIC values, range over susceptible yeast strains: range stated in text over the tested yeast strains; for antifungal activity: salts, six yeast strains, stated in words
[7] = biological target: recombinant homoisocitrate dehydrogenase (HIcDH) (Candida albicans, UniProt Q5A9D9); experiment: Homoisocitrate dehydrogenase activity, NADH absorption at 340 nm; type: biochemical; details: for effect on enzyme activity (homoisocitrate dehydrogenase): ester derivatives, concentrations up to 10 mM; for IC50: recombinant C. albicans His-tagged HIcDH, inhibitor 0–10 mM, mean of three determinations ± SD
recombinant homoisocitrate dehydrogenase (HIcDH), sequence (Q5A9D9 entry or part of it): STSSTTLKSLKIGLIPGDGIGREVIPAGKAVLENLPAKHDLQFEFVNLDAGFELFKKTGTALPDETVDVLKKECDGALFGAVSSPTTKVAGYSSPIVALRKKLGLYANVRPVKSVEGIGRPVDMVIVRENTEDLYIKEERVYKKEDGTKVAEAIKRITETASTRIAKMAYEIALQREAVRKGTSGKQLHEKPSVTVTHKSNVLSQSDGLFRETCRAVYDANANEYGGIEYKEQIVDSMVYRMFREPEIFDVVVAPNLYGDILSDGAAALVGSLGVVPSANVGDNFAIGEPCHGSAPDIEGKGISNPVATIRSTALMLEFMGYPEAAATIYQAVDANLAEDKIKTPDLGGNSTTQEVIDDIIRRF
Experimental: as §1
Reaction catalyzed by homoisocitrate dehydrogenase (HIcDH) was monitored by measuring the NADH absorption at 340 nm. The standard assay mixture contained 10 mM KCl, 5.0 mM MgCl2, 5 mM NAD^+ and 0.1 mM (2R,3S)-homoisocitrate in 50 mM Hepes-NaOH (pH 7.8) buffer. The reaction mixture with all required components except for the enzyme was preincubated for 3 min and the reaction was started by an addition of the recombinant His6-HIcDH (50 μg). The formation of NADH was measured for 30 s at 20 °C to determine initial reaction velocity. The initial rates were determined using a linear portion of the reaction progress curve.
as §2

Candida krusei DSM 6128 = experiment: Antifungal in vitro activity, microplate serial dilution (modified CLSI M27-A3); type: cell-based; details: Pichia kudriavzevii
[8] = DSM11226, RPMI-1640 pH 7.0, 24 h at 37 °C, at least 80% decrease in turbidity, read-out: MIC C. glabrata
[9] = ATCC9763, RPMI-1640 pH 7.0, 24 h at 37 °C, at least 80% decrease in turbidity, read-out: MIC S. cerevisiae
[10] = DSM70102, RPMI-1640 pH 7.0, 24 h at 37 °C, at least 80% decrease in turbidity, read-out: MIC C. lusitaniae
[11] = ATCC10231, RPMI-1640 pH 7.0, 24 h at 37 °C, at least 80% decrease in turbidity, read-out: MIC C. albicans
[12] = KKP334, RPMI-1640 pH 7.0, 24 h at 37 °C, at least 80% decrease in turbidity, read-out: MIC C. tropicalis
[13] = DSM6128, RPMI-1640 pH 7.0, 24 h at 37 °C, at least 80% decrease in turbidity, read-out: MIC C. krusei
[14] = DSM11226, 24 h, pH 7, read-out: MIC C. glabrata
[15] = ATCC9763, 24 h, pH 7, read-out: MIC S. cerevisiae
[16] = DSM70102, 24 h, pH 7, read-out: MIC C. lusitaniae
[17] = ATCC10231, 24 h, pH 7, read-out: MIC C. albicans
[18] = KKP334, 24 h, pH 7, read-out: MIC C. tropicalis
[19] = DSM6128, 24 h, pH 7, read-out: MIC C. krusei

Structure (SMILES)	MIC [1, 8]	MIC [2, 9]	MIC [3, 10]	MIC [4, 11]	effect on enzyme activity (homoaconitase) [5]	MIC [6, 12]	MIC values, range over susceptible yeast strains (six yeast strains)	effect on enzyme activity (homoisocitrate dehydrogenase) [7]	MIC (Candida krusei DSM 6128; [13])	MIC [1, 14]	MIC [2, 15]	MIC [3, 16]	MIC [4, 17]	IC50 [5]	MIC [6, 18]	antifungal activity (six yeast strains)	IC50 [7]	MIC (Candida krusei DSM 6128; [19])	Km ([7]; recombinant C. albicans HIcDH, read-out: KM of recombinant HIcDH for cofactor)
COC(=O)/C=C(\CCC(=O)OC)C(=O)OC [Compound 1a, trimethyl (1E)-but-1-ene-1,2,4-tricarboxylate]	16 µg/mL (≈ 69.5 µM)	32 µg/mL (≈ 139 µM)	16 µg/mL (≈ 69.5 µM)	16 µg/mL (≈ 69.5 µM)	none	32 µg/mL (≈ 139 µM)	16 to 32 µg/mL	none	32 µg/mL (≈ 139 µM)	–	–	–	–	–	–	–	–	–	–
O=C([O-])/C=C(\CCC(=O)[O-])C(=O)[O-].[K+].[K+].[K+] [Compound 2, tripotassium (1E)-but-1-ene-1,2,4-tricarboxylate]	–	–	–	–	–	–	–	–	–	> 512 µg/mL	> 512 µg/mL	> 512 µg/mL	> 512 µg/mL	1.58 ± 0.11 mM	> 512 µg/mL	None	> 10 mM	> 512 µg/mL	–
COC(=O)CCC1(C(=O)OC)OC1C(=O)OC (stereo not drawn) [Compound 3, Trimethyl (1E)1,2-epoxy-butane-1,2,4-tricarboxylate]	128 µg/mL (≈ 520 µM)	> 512 µg/mL	512 µg/mL (≈ 2080 µM)	256 µg/mL (≈ 1040 µM)	none	128 µg/mL (≈ 520 µM)	128 to 512 µg/mL	none	> 512 µg/mL	–	–	–	–	–	–	–	–	–	–
O=C(O)CCC1(C(=O)O)OC1C(=O)O (stereo not drawn) [Compound 4, Tripotassium (1E)1,2-epoxy-butane-1,2,4-tricarboxylate]	> 512 µg/mL	> 512 µg/mL	> 512 µg/mL	> 512 µg/mL	–	> 512 µg/mL	–	–	> 512 µg/mL	–	–	–	–	5.76 ± 0.34 mM	–	None	> 10 mM	–	–
CCC[C@@H](C(=O)OC)[C@H](O)C(=O)OC [Compound 5a, Dimethyl (2S,3R)-2-hydroxy-3-propylsuccinate]	> 512 µg/mL	> 512 µg/mL	> 512 µg/mL	> 512 µg/mL	–	> 512 µg/mL	–	–	> 512 µg/mL	–	–	–	–	–	–	–	–	–	–
CCCC[C@@H](C(=O)OC)[C@H](O)C(=O)OC [Compound 5b, Dimethyl (2S,3R)-2-hydroxy-3-butylsuccinate]	> 512 µg/mL	> 512 µg/mL	> 512 µg/mL	> 512 µg/mL	–	> 512 µg/mL	–	–	> 512 µg/mL	–	–	–	–	–	–	–	–	–	–
C=CC[C@@H](C(=O)OC)[C@H](O)C(=O)OC [Compound 5c, Dimethyl (2S,3R)-2-hydroxy-3-allylsuccinate]	> 512 µg/mL	> 512 µg/mL	> 512 µg/mL	> 512 µg/mL	–	> 512 µg/mL	–	–	> 512 µg/mL	–	–	–	–	–	–	–	–	–	–
CCC[C@@H](C(=O)OC)[C@@H](F)C(=O)OC [Compound 6a, Dimethyl (2R,3S)-2-fluoro-3-propylsuccinate]	> 512 µg/mL	> 512 µg/mL	512 µg/mL (≈ 2480 µM)	> 512 µg/mL	–	> 512 µg/mL	–	–	> 512 µg/mL	–	–	–	–	–	–	–	–	–	–
CCCC[C@@H](C(=O)OC)[C@@H](F)C(=O)OC [Compound 6b, Dimethyl (2R,3S)-2-fluoro-3-butylsuccinate]	512 µg/mL (≈ 2320 µM)	> 512 µg/mL	128 µg/mL (≈ 581 µM)	256 µg/mL (≈ 1160 µM)	–	128 µg/mL (≈ 581 µM)	–	–	> 512 µg/mL	–	–	–	–	–	–	–	–	–	–
C=CC[C@@H](C(=O)OC)[C@@H](F)C(=O)OC [Compound 6c, Dimethyl (2R,3S)-2-fluoro-3-allylsuccinate]	256 µg/mL (≈ 1250 µM)	> 512 µg/mL	> 512 µg/mL	256 µg/mL (≈ 1250 µM)	–	256 µg/mL (≈ 1250 µM)	–	–	512 µg/mL (≈ 2510 µM)	–	–	–	–	–	–	–	–	–	–
C=CC[C@@H](C(=O)[O-])[C@@H](F)C(=O)[O-].[K+].[K+] [Compound 7c, Dipotassium (2R,3S)-2-fluoro-3-allylsuccinate]	–	–	–	–	–	–	–	–	–	> 512 µg/mL	> 512 µg/mL	512 µg/mL	> 512 µg/mL	> 10 mM	> 512 µg/mL	None	6.78 ± 0.56 mM	> 512 µg/mL	–
COC(=O)CC[C@@H](C(=O)OC)[C@@H](F)C(=O)OC [Compound 9, trimethyl (1R,2S)-1-fluorobutane-1,2,4-tricarboxylate]	256 µg/mL (≈ 1020 µM)	> 512 µg/mL	> 512 µg/mL	128 µg/mL (≈ 512 µM)	none	64 µg/mL (≈ 256 µM)	–	none	256 µg/mL (≈ 1020 µM)	–	–	–	–	–	–	–	–	–	–
O=C([O-])CC[C@@H](C(=O)[O-])[C@@H](F)C(=O)[O-].[K+].[K+].[K+] [Compound 10, tripotassium (1R,2S)-1-fluorobutane-1,2,4-tricarboxylate]	–	–	–	–	–	–	–	–	–	> 512 µg/mL	> 512 µg/mL	> 512 µg/mL	> 512 µg/mL	> 10 mM	> 512 µg/mL	None	3.22 ± 0.55 mM	> 512 µg/mL	–
OC(Cn1cncn1)(Cn1cncn1)c1ccc(F)cc1F [Flu, Fluconazole, reference compound]	8 µg/mL (≈ 26.1 µM)	4 µg/mL (≈ 13.1 µM)	4 µg/mL (≈ 13.1 µM)	4 µg/mL (≈ 13.1 µM)	–	2 µg/mL (≈ 6.53 µM)	–	–	8 µg/mL (≈ 26.1 µM)	–	–	–	–	–	–	–	–	–	–
NC(=O)c1ccc[n+]([C@@H]2O[C@H](COP(=O)([O-])OP(=O)(O)OC[C@H]3O[C@@H](n4cnc5c(N)ncnc54)[C@H](O)[C@@H]3O)[C@@H](O)[C@H]2O)c1 [NAD^+, reference compound]	–	–	–	–	–	–	–	–	–	–	–	–	–	–	–	–	–	–	1100 µM
